This is an account of results in patent US11865125B2, “APKC inhibitors and methods of treating a neurodegenerative disease or disorder” (UNIVERSITY OF SOUTH FLORIDA, priority 2016, dated 2024).

“Also recorded” adds a separate entry of the source.

Data set [1] deals with Aβ1-40/42. As to the kind of experiment: Aβ1-40/42 levels in LA1-5s neuroblastoma cells. Particulars: for effect on levels of Aβ1-40/42: LA1-5s cells. Type of data set: cell-based, human. On the procedure:
(§1) Relative bar values in panel a are mean±SEM of 6 determinations. Asterisks: *, P<0.05; **, P<0.01; ***, P<0.001 (ANOVA). Values in panel b are means of 2-4 determinations.
(§2) Shown here are Mean±SEM (N=4) values relative to the mean initial basal or insulin-stimulated level of indicated immunoreactive protein/peptide. Asterisks: *, P<0.05; **, P<0.01; ***, P<0.001 (ANOVA).
(§3) Western Analyses. As described, Western analyses were conducted with rabbit antisera or mouse monoclonal antibodies (mMab), using: anti-aPKC (Santa Cruz Biotechnologies, Santa Cruz, CA); anti-phospho-threonine-560/555-PKC-ζ/λ/ι (Invitrogen, Carlsbad, CA); anti-p-serine-256-FoxO1 and anti-FoxO1 (Abnova, Walnut, CA); anti-Akt (mMab), anti-phospho-serine-473-Akt, anti-phospho-serine-9-GSK3P anti-GSK313, anti-phospho-serine-253-FoxO3a, anti-FoxO3a, anti-phospho-serine-256-FoxO1, anti-phospho-serine-193-FoxO4; anti-FoxO1, anti-phospho-serine-2448-mTOR, anti-mTOR, anti-β-amyloid (anti-5-10 kDa-Aβ1-40/42) and anti-amyloid precursor protein (anti-120 kDa-APP) (Cell Signaling Technologies, Danvers, MA); and anti-phospho-serine-202-tau, anti-phospho-threonine-231-tau (Gene Tex, Irvine, CA). Samples from experimental groups were compared on the same blots, and routinely checked with loading controls. Note that: insulin-sensitive 70 kDa aPKC is largely PKC-ζ in mouse brain and orthologous PKC-ι (98% aa homology) in monkey and other primate brains; brain PKC-ζ exists largely as a 50 kDa moiety that, lacking a regulatory domain, is constitutively-active and unresponsive to insulin.

In data set [2] the test system is Akt substrates, GSK3β and mTOR. As to the kind of experiment: phosphorylation of Akt substrates in LA1-5s neuroblastoma cells. Type of data set: cell-based, human. Particulars: 200 nM insulin. On the procedure: as §1, §3
For data set [3], the system named is Akt. As to the kind of experiment: Akt activity in LA1-5s neuroblastoma cells. Type of data set: cell-based, human. Particulars: 200 nM insulin. On the procedure:
as §1, §2, §3

The subject of data set [4] is Aβ1-40/42. As to the kind of experiment: brain Aβ1-40/42 peptide levels in mice. The class given is in vivo, mouse. Particulars: control mice, insulin 1 unit/kg i.p. 15 min.
From the text: (§4) Mouse Studies. Brain samples were obtained from normal and insulin-resistant mice and monkeys used previously, and includes mice originally used in studies of insulin signaling and resistance in liver: (a) 4-6 month old C57Bl/6 mice used in studies of high-fat-feeding [USF Vivarium] [6]; 4-6 month-old male C57Bl/6 ob/ob and lean ob+ mice (Jackson Labs, Bar Harbor, Maine); and (c) 10-12 month-old C57Bl/6 Het-MλKO mice [USF Vivarium] [8]. […] Where indicated normal mice were given a single SC injection of saline or saline containing 1.5 mg/kg ICAPP to follow time-related alterations in brain signaling factors. Where indicated, mice were treated intraperitoneally (IP) with insulin (1 U/kg body weight) or vehicle 15-min before euthanization by administration of Xylazine/Ketamine, followed by whole body perfusion with phosphate-buffered saline and rapid removal of brain and other tissues.
(§5) Tissue Preparations. As described, mouse brains were hemisected sagittally, and one-half was frozen in liquid N2, stored at −80° C., and samples thereof were homogenized in buffer containing 0.25M sucrose, 20 mM Tris/HCl (pH, 7.5), 2 mmol/l EGTA, 2 mM EDTA, 1 mM phenlysulfonoylfluoride (PMSF), 20 μg/ml leupeptin, 10 μg/ml aprotinin, 2 mM Na4P2O7, 2 mM Na3VO4, 2 mM NaF, and 1 μM microcystin, and then supplemented with 1% TritonX-100, 0.6% Nonidet and 150 mM NaCl.
as §3
(§6) Where indicated, mice were randomly treated with insulin (1 unit/kg/bw i.p.) 15 min before being euthanized by administration of xylazine/ketamine, followed by whole-body perfusion with PBS and rapid removal of brain and other tissues.

For another data set, the target named is T1, 70 kDa PKC-λ/ι (Mus musculus, UniProt Q62074).
T1 construct: insulin-sensitive 70 kDa PKC-λ/ι in brains of Het-MλKO mice; from tissue; host or cells: mouse brain homogenate
T1 sequence (Q62074 1-595): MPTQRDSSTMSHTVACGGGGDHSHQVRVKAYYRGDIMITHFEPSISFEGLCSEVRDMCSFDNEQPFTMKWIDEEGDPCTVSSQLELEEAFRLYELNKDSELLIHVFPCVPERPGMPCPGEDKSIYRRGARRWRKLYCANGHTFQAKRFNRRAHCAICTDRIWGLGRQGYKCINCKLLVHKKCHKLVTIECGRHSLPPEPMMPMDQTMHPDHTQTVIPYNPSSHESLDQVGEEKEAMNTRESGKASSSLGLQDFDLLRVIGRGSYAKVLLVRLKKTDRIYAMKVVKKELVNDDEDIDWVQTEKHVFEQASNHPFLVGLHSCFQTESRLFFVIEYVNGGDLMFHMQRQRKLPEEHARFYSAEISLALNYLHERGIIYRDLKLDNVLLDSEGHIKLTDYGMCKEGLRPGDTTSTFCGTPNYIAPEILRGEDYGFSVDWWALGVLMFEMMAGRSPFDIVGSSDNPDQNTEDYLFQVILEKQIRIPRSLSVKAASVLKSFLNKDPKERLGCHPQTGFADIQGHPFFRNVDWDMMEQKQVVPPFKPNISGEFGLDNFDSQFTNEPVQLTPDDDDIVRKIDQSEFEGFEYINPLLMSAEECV
Kind of data set: brain aPKC (PKC-λ/ι) phosphorylation/activity in mice. Type of data set: in vivo.
From the text: as §4, §5, §3, §6

Data set [5] relates to β-secretase (BACE1). Kind of data set: brain β-secretase activity (BACE1) in mice. The class given is in vivo, mouse. Particulars: normal WT mice, insulin 1 U/kg i.p. 15 min.
From the text: Mouse Studies. Brain samples were obtained from normal and insulin-resistant mice and monkeys used previously, and includes mice originally used in studies of insulin signaling and resistance in liver: (a) 4-6 month old C57Bl/6 mice used in studies of high-fat-feeding [USF Vivarium] [6]; 4-6 month-old male C57Bl/6 ob/ob and lean ob+ mice (Jackson Labs, Bar Harbor, Maine); and (c) 10-12 month-old C57Bl/6 Het-MλKO mice [USF Vivarium] [8]. Males and females were comparably present in experimental groups, and sex didn't appreciably alter combined findings. Hepatic alterations, clinical characteristics and ameliorating effects of liver-selective aPKC inhibitors were reported previously. […] Where indicated, Het-MλKO were injected subcutaneously (SC) once daily for 8 days with saline or 1H-imidazole-4-carboxamide,5-amino]-(2,3-dihydroxy-4-[(phosphono-oxy)methyl]cyclopentane-[1R-(1a,2b,3b,4a)] (ICAPP) 0.4 mg/kg body weight) in saline, to inhibit hepatic aPKC, and thus diminish aPKC-dependent expression of hepatic gluconeogenic and lipogenic enzymes, and thereby reduce serum insulin levels to near-normal. Where indicated normal mice were given a single SC injection of saline or saline containing 1.5 mg/kg ICAPP to follow time-related alterations in brain signaling factors. Where indicated, mice were treated intraperitoneally (IP) with insulin (1 U/kg body weight) or vehicle 15-min before euthanization by administration of Xylazine/Ketamine, followed by whole body perfusion with phosphate-buffered saline and rapid removal of brain and other tissues.
as §5
(§7) β-Secretase Activity (BACE1; beta-site APP-cleaving enzyme-1). β-Secretase was measured was measured using a kit from Thermo-Fisher.

In data set [6] the test system is Akt. As to the kind of experiment: brain Akt phosphorylation/activity in mice. Particulars: control mice, insulin 1 unit/kg i.p. 15 min. The class given is in vivo, mouse.
From the text: as §4, §5, §3, §6

Data set [7] concerns β-secretase (BACE1). As to the kind of experiment: β-secretase activity (BACE1) in LA1-5s neuroblastoma cells. Particulars: LA1-5s cells. Type of data set: cell-based, human. The protocol: as §1, §2, §7
For data set [8], the system named is aPKC. As to the kind of experiment: aPKC activity in LA1-5s neuroblastoma cells. The class given is cell-based, human.
For data set [9], the system named is SREBP-1c, FAS, ACC, PEPCK, G6Pase, and PGC-1α. Kind of data set: expression of lipogenic and gluconeogenic enzymes in human hepatocytes. Type of data set: cell-based. An excerpt: Relative values are Mean±SEM (N=4-8). Asterisks: *, P<0.05; **, P<0.01; ***, P<0.001. ANOVA.
The subject of the next data set is phospho-thr-231-tau. Kind of data set: phospho-thr-231-tau levels in LA1-5s neuroblastoma cells. The class given is cell-based, human. Particulars: LA1-5s cells, metformin alone. On the procedure:
as §2, §3

The test system of data set [10] is aPKC. Kind of data set: aPKC activity in human hepatocytes. The class given is cell-based. Particulars: normal human hepatocytes, 100 μM metformin, preliminary studies. An excerpt: (§8) Relative values. Mean±SEM (N=4-8). Asterisks: *, P<0.05; **, P<0.01; ***, P<0.001.
Data set [11] deals with Akt. Kind of data set: Akt activity in human hepatocytes. Particulars: normal human hepatocytes, 100 μM metformin, preliminary studies. The class given is cell-based.
From the text: as §8

For data set [12] the following is noted: cited from earlier work.
The mark [13] stands for this setting: neuroblastoma cells, 200 nM insulin, 1 hour.

With insulin, the “effect on levels of Aβ1-40/42” value in the data set on Aβ1-40/42 [1] (200 nM insulin, 24 hours) is “elicited increases”. Also, in the data set on Aβ1-40/42 [1] (setting [13]), the “effect on Aβ1-40/42 peptide levels” value was “can increase”. Besides, the “effect on phosphorylation of Akt substrates, GSK3β and mTOR” value in data set [2] (LA1-5s cells, 24 hours) was “elicited increases”. For the same molecule, the “effect on Akt-dependent GSK3β and mTOR phosphorylation” value in [2] (neuroblastoma cells, 1 hour) was “can increase”. Further, the “effect on Akt activity” value in the data set with Akt [3] (LA1-5s cells, 24 hours) is “elicited increases”; with Akt [3] (neuroblastoma cells, 1 hour), “can increase”. Besides, the “brain Aβ1-40/42 peptide levels” value with Aβ1-40/42 [4] is on record as “increased”. In addition, the “brain aPKC activity” value in the data set with 70 kDa PKC-λ/ι (control mice, insulin 1 unit/kg i.p. 15 min) is “provoked increases”. Also, the “brain β-secretase activity (BACE1)” value in the data set on β-secretase (BACE1) [5] is on record as “accompanied by increases”. For the same molecule, the “brain Akt activity” value in the data set with Akt [6] was “provoked increases”. The “effect on activity of β-secretase” value with β-secretase (BACE1) [7] (200 nM insulin, 24 hours) was “elicited increases”. The “effect on aPKC activity” value is “elicited increases” in the data set with aPKC [8] (LA1-5s cells, 200 nM insulin, 24 hours) and “can increase” in the data set with aPKC [8] (setting [13]).

`CN(C)C(=N)N=C(N)N` [metformin]: the “effect on levels of Aβ1-40/42” value in the data set with Aβ1-40/42 [1] (metformin alone) is “increase”. In data set [9] (hepatocytes, metformin), the “SREBP-1c activity and expression of lipogenic enzymes” value is “increases in activity of SREBP-1c and SREBP-1c-dependent expression of lipogenic enzymes”. Further, the gluconeogenic enzyme expression result in [9] (normal human hepatocytes, 100 μM metformin, preliminary studies) is “increases in gluconeogenic enzyme expression”. Further, the “effect on levels of phospho-thr-231-tau” value in the data set with phospho-thr-231-tau is on record as “increase”. Moreover, the aPKC activity result with aPKC [10] is listed as “increases in aPKC activity”. For the same molecule, the “Akt activation and action” value in the data set with Akt [11] is “impairments in Akt activation and action”. Moreover, the “effect on β-secretase activity” value with β-secretase (BACE1) [7] (metformin alone) is reported as “increase”. Further, the “effect on aPKC activity” value in the data set with aPKC [8] (LA1-5s cells, metformin alone) was “increase”.

As for `NC(=O)c1ncn([C@@H]2C[C@H](CO)[C@@H](O)[C@H]2O)c1N` [ICAP, reference compound], the “acute effects of insulin on CNS aPKC activity” value on 70 kDa PKC-λ/ι (normal mice, doses employed in the initial studies) is “unable to diminish acute effects of insulin on CNS aPKC activity”. The “hyperinsulinemia, with regard to hyperactivation of CNS Akt and aPKC” value in data set [12] (HFF and ob/ob mice, doses effective on hepatic aPKC, initial studies) is on record as “did not improve hyperinsulinemia sufficiently”.

Regarding `O=C(O)CC([S-])C(=O)O.[Au+]` (stereo not drawn) [ATM, aurothiomalate], in data set [12] (Het-MλKO mice, reported previously), the “serum insulin levels / hyperinsulinemia” value was “fully/sufficiently improved; also recorded: reduced serum insulin levels to normal”.
